# Measurements: US20250025397A1, “AN OIL-IN-WATER EMULSION GEL COMPRISING TIOTROPIUM BROMIDE” (Dryox Health, S.L., priority 2021, published 2025)
# Where two headings read alike, the source gives them in different places.
# Columns and labels:
# [1] = Tiotropium maximum solubility in a selection of excipients; assay type: physicochemical
# Protocol: For the evaluation of the compatibility of the active in each excipient, 25 mg of tiotropium bromide (TTB) were weighed in suitable glass containers and increasing amounts of the appropriate solvent were added. The samples were subjected to heating and ultrasonication when necessary. The appearance of the mixture and the maximum concentration of TTB in each solvent was recorded.
# The solubility of the active was determined in different excipients (polymer solvents, permeation enhancers, surfactants, emollients, etc.). Table 1 summarizes the maximum solubility achieved in each of them.
# [2] = cited from earlier work
smiles,measurement,setting,value
"C[N+]1(C)[C@@H]2CC(OC(=O)C(O)(c3cccs3)c3cccs3)C[C@H]1[C@@H]1O[C@@H]12.[Br-] (stereo partly drawn) [Tiotropium bromide, [(1S,2S,4R,5R)-9,9-dimethyl-3-oxa-9-azoniatricyclo[3.3.1.0^2,4]nonan-7-yl]2-hydroxy-2,2-dithiophen-2-ylacetate bromide]",Maximum solubility,"[1]; in 1,3-propanediol",2.50 % (w/w)
same,Maximum solubility,[1]; in Benzyl Alcohol,50.00 % (w/w)
same,Maximum solubility,[1]; in Cremophor EL,0.20 % (w/w)
same,Maximum solubility,[1]; in Cremophor RH40,<0.12 % (w/w)
same,Maximum solubility,[1]; in DMSO,>30.00 % (w/w)
same,Maximum solubility,[1]; in Dimethyl fomamide,40.00 % (w/w)
same,Maximum solubility,[1]; in Ethanol,0.80 % (w/w)
same,Maximum solubility,[1]; in Ethyl Oleate,<0.12 % (w/w)
same,Maximum solubility,[1]; in Glycerol,6.00 % (w/w)
same,Maximum solubility,[1]; in IPM,<0.12 % (w/w)
same,Maximum solubility,[1]; in Isopropyl Alcohol,0.13 % (w/w)
same,Maximum solubility,[1]; in Kollicream ® 3C,<0.12 % (w/w)
same,Maximum solubility,[1]; in Labrasol,0.55 % (w/w)
same,Maximum solubility,[1]; in Lactic acid,20.00 % (w/w)
same,Maximum solubility,[1]; in Linseed oil,<0.12 % (w/w)
same,Maximum solubility,[1]; in MCT,<0.12 % (w/w)
same,Maximum solubility,[1]; in Oleic acid,<0.12 % (w/w)
same,Maximum solubility,[1]; in PEG-400,1.67 % (w/w)
same,Maximum solubility,[1]; in Polysorbate 20,1.15 % (w/w)
same,Maximum solubility,[1]; in Polysorbate 80,0.20 % (w/w)
same,Maximum solubility,[1]; in Propylene Glycol,5.00 % (w/w)
same,Maximum solubility,[1]; in Transcutol HP,<0.12 % (w/w)
same,Maximum solubility,[1]; in Triacetin,<0.12 % (w/w)
same,Maximum solubility,[1]; in Triolein,<0.12 % (w/w)
same,solubility,[2]; in dimethyl sulphoxide,freely soluble
same,solubility,[2]; in methanol,soluble
same,solubility,[2]; in methylene chloride,practically insoluble
same,solubility,[2]; in water,sparingly soluble
same,solubility in aqueous solutions,"[2]; room temperature, independent of pH",approx. 2.5%
